In ChEMBL document CHEMBL1144190, “Structure-activity relationship study of a novel necroptosis inhibitor, necrostatin-7” (Bioorg Med Chem Lett, 2008):
The source made the active and inactive calls. The rule behind the calls is not given here.

What was measured:
Jurkat = assay: Inhibition of TNF-alpha-induced necroptosis in FADD-deficient human Jurkat cells; type: functional, cell-based
[1] = target: T1, Receptor-interacting serine/threonine-protein kinase 1 (Homo sapiens) (UniProt Q13546); assay: Inhibition of GST-tagged human recombinant RIP1 kinase expressed in Sf9 cells
T1 sequence (whole entry): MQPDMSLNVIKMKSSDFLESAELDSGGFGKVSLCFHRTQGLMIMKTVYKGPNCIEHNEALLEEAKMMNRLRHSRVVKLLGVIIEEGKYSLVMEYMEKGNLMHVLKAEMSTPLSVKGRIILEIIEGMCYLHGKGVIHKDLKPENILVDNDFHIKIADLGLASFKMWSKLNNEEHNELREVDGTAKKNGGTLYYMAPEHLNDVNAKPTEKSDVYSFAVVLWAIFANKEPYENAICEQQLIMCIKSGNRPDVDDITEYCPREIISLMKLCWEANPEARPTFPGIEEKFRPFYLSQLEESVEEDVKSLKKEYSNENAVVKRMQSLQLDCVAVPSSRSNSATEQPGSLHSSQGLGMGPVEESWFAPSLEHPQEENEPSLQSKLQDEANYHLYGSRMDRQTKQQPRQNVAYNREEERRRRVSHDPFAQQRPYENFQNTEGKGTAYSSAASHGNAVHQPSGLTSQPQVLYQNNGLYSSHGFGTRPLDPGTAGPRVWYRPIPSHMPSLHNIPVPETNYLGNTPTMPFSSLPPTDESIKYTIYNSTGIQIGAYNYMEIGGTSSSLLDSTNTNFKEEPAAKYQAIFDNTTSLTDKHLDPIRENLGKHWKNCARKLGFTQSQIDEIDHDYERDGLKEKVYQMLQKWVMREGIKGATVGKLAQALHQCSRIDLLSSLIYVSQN

| SMILES | EC50 (Jurkat) | Activity (Jurkat) | also measured |
| --- | --- | --- | --- |
| N=C1S/C(=C\c2c[nH]nc2-c2ccc(N3CCCCC3)cc2)C(=O)N1c1nccs1 | 6.36 µM | – | – |
| Cc1cc(/C=C2\SC(=N)N(c3nccs3)C2=O)c(-c2ccc(F)cc2)[nH]1 | – | inactive | – |
| N=C1S/C(=C\c2c[nH]nc2-c2cccc(F)c2)C(=O)N1c1nccs1 | – | inactive | – |
| Cc1ccc(-c2ccc(-c3n[nH]cc3/C=C3\SC(=N)N(c4nccs4)C3=O)cc2)cc1 | 4.38 µM | – | – |
| N=C1S/C(=C\c2conc2-c2ccc([N+](=O)[O-])cc2)C(=O)N1c1nccs1 | – | inactive | – |
| N=C1S/C(=C\c2c[nH]nc2-c2ccc(F)c(F)c2)C(=O)N1c1nccs1 | 6.32 µM | – | – |
| N=C1S/C(=C\c2c[nH]nc2-c2cccc(F)c2)C(=O)N1c1nncs1 | – | inactive | – |
| Cc1ccc(-c2n[nH]cc2/C=C2\SC(=N)N(c3nccs3)C2=O)cc1 | 7.77 µM | – | – |
| Cc1ccc(-c2nocc2/C=C2\SC(=N)N(c3nccs3)C2=O)cc1 | – | inactive | – |
| N=C1S/C(=C\c2c[nH]nc2-c2ccc(F)c(N3CCOCC3)c2)C(=O)N1c1nccs1 | 2.9 µM | – | – |
| N=C1S/C(=C\c2c[nH]nc2-c2ccccc2)C(=O)N1c1nccs1 | 40.6 µM | – | – |
| COc1ccc(-c2ccc(-c3n[nH]cc3/C=C3\SC(=N)N(c4nccs4)C3=O)cc2)cc1 | 2.59 µM | – | – |
| N=C1S/C(=C\c2c[nH]nc2-c2ccc(N3CCOCC3)cc2)C(=O)N1c1nccs1 | 2.93 µM | – | – |
| Cc1cnc(N2C(=N)S/C(=C\c3c[nH]nc3-c3ccc(F)cc3)C2=O)s1 | 23.1 µM | – | – |
| N=C1S/C(=C\c2conc2-c2ccc(F)cc2)C(=O)N1c1nccs1 | – | inactive | – |
| Cc1csc(N2C(=N)S/C(=C\c3c[nH]nc3-c3ccc(F)cc3)C2=O)n1 | 5.25 µM | – | – |
| COc1ccc(-c2n[nH]nc2/C=C2\SC(=N)N(c3nccs3)C2=O)cc1 | – | inactive | – |
| N=C1S/C(=C\c2c[nH]nc2-c2ccc(F)cc2)C(=O)N1c1nncs1 | – | inactive | – |
| N=C1S/C(=C\c2c[nH]nc2-c2ccc(C(=O)N3CCOCC3)cc2)C(=O)N1c1nccs1 | 7.19 µM | – | – |
| N=C1S/C(=C\c2n[nH]nc2-c2ccc(F)cc2)C(=O)N1c1nccs1 | – | inactive | – |
| N=C1S/C(=C\c2c[nH]nc2-c2ccc3c(c2)OCO3)C(=O)N1c1nccs1 | 34.8 µM | – | – |
| N=C1S/C(=C\c2c[nH]nc2-c2ccccc2F)C(=O)N1c1nccs1 | – | inactive | – |
| N=C1S/C(=C\c2n[nH]nc2-c2ccc(Cl)cc2)C(=O)N1c1nccs1 | – | inactive | – |

| SMILES | EC50 (Jurkat) | Activity (Jurkat) | also measured |
| --- | --- | --- | --- |
| COc1ccc(-c2n[nH]cc2/C=C2\SC(=N)N(c3nccs3)C2=O)cc1 | 14.9 µM | – | – |
| N=C1S/C(=C\c2c[nH]nc2-c2ccc(N3CCSCC3)cc2)C(=O)N1c1nccs1 | 3.3 µM | – | – |
| N=C1S/C(=C\c2c[nH]nc2-c2ccc(F)cc2)C(=O)N1c1nccs1 | 10.6 µM | – | – |
| N=C1S/C(=C\c2c[nH]nc2-c2ccc(N3CCCC3)cc2)C(=O)N1c1nccs1 | 9.53 µM | – | – |
| N=C1S/C(=C\c2c[nH]nc2-c2ccc(-c3ccc(F)cc3)cc2)C(=O)N1c1nccs1 | 3.87 µM | – | – |
| N=C1S/C(=C\c2c[nH]nc2-c2ccc([N+](=O)[O-])cc2)C(=O)N1c1nccs1 | 23 µM | – | – |
| N=C1S/C(=C\c2c[nH]nc2-c2ccc(Br)cc2)C(=O)N1c1nccs1 | 34.5 µM | – | – |
| N=C1S/C(=C\c2c[nH]nc2-c2ccc(-c3ccccc3)cc2)C(=O)N1c1nccs1 | 1.29 µM | – | – |
| N=C1S/C(=C\c2cc(-c3ccccc3)[nH]c2-c2ccc(F)cc2)C(=O)N1c1nccs1 | – | inactive | – |
| N=C1S/C(=C\c2conc2-c2ccc(Cl)cc2)C(=O)N1c1nccs1 | – | inactive | – |
| N=C1S/C(=C\c2cc(CC(N)=O)[nH]c2-c2ccc(F)cc2)C(=O)N1c1nccs1 | – | inactive | – |
| N=C1S/C(=C\c2c[nH]nc2-c2ccc(-c3cccc(F)c3)cc2)C(=O)N1c1nccs1 | 48 µM | – | – |
| N=C1S/C(=C\c2c[nH]nc2-c2ccccc2F)C(=O)N1c1nncs1 | – | inactive | – |
| COc1ccccc1-c1ccc(-c2n[nH]cc2/C=C2\SC(=N)N(c3nccs3)C2=O)cc1 | 2.41 µM | – | – |
| N=C1S/C(=C\c2c[nH]nc2-c2ccccc2)C(=O)N1c1nncs1 | – | inactive | – |
| N=C1S/C(=C\c2n[nH]nc2-c2ccccc2)C(=O)N1c1nccs1 | – | inactive | – |
| N=C1S/C(=C\c2c[nH]nc2-c2ccc(C(=O)N3CCCCC3)cc2)C(=O)N1c1nccs1 | 2.09 µM | – | – |
| N=C1S/C(=C\c2c[nH]nc2-c2ccc(O)cc2)C(=O)N1c1nccs1 | 32.7 µM | – | – |
| N=C1S/C(=C\c2c[nH]nc2-c2ccc(Cl)cc2)C(=O)N1c1nccs1 | 15.6 µM | – | – |
| N=C1S/C(=C\c2cc(Cc3ccccc3)[nH]c2-c2ccc(F)cc2)C(=O)N1c1nccs1 | – | inactive | – |
| N=C1S/C(=C\c2c[nH]nc2-c2ccc(S(=O)(=O)c3ccccc3)cc2)C(=O)N1c1nccs1 | 1.78 µM | – | Activity [1]: inactive |
| N=C1S/C(=C\c2c[nH]nc2-c2ccc(-c3ccc(Cl)cc3)cc2)C(=O)N1c1nccs1 | > 100 µM | – | – |
